Data reported in ChEMBL document CHEMBL3112450, “Synthesis and in vitro antitumor evaluation of primary amine substituted quinazoline linked benzimidazole” (Bioorg Med Chem Lett, 2014).

system: LOX IMVI; experiment: Cytotoxicity against human LOXIMVI cells assessed as cell growth at 10^-5 M after 48 hrs by SRB assay; format: functional; conditions: read-out: Activity

Row | SMILES | growth at 10 µM
1 | C=CCn1c(C)nc2ccc(Nc3nc(Sc4ccc(N)cc4)nc4ccccc34)cc21 | 97%

system: BT-549; experiment: Cytotoxicity against human BT549 cells assessed as cell growth at 10^-5 M after 48 hrs by SRB assay; format: functional; conditions: BT-549, 48 h, read-out: Activity

Row | SMILES | growth at 10 µM
2 | C=CCn1c(C)nc2ccc(Nc3nc(Sc4ccc(N)cc4)nc4ccccc34)cc21 | 87.9%

system: not listed separately; experiment: Cytotoxicity against human Hs578T cells assessed as cell growth at 10^-5 M after 48 hrs by SRB assay; format: functional; conditions: Hs-578T, read-out: Activity

Row | SMILES | growth at 10 µM
3 | C=CCn1c(C)nc2ccc(Nc3nc(Sc4ccc(N)cc4)nc4ccccc34)cc21 | 98.1%

system: SN12C; experiment: Cytotoxicity against human SN12C cells assessed as cell growth at 10^-5 M after 48 hrs by SRB assay; format: functional; conditions: read-out: Activity

Row | SMILES | growth at 10 µM
4 | C=CCn1c(C)nc2ccc(Nc3nc(Sc4ccc(N)cc4)nc4ccccc34)cc21 | 93.9%

system: OVCAR-3; experiment: Cytotoxicity against human OVCAR3 cells assessed as cell growth at 10^-5 M after 48 hrs by SRB assay; format: functional; conditions: OVCAR-3, 48 h, read-out: Activity

Row | SMILES | growth at 10 µM
5 | C=CCn1c(C)nc2ccc(Nc3nc(Sc4ccc(N)cc4)nc4ccccc34)cc21 | 106%

system: RXF 393; experiment: Cytotoxicity against human RXF393 cells assessed as cell growth at 10^-5 M after 48 hrs by SRB assay; format: functional; conditions: RXF 393, 48 h, read-out: Activity

Row | SMILES | growth at 10 µM
6 | C=CCn1c(C)nc2ccc(Nc3nc(Sc4ccc(N)cc4)nc4ccccc34)cc21 | 144%

system: SK-MEL-5; experiment: Cytotoxicity against human SK-MEL-5 cells assessed as cell growth at 10^-5 M after 48 hrs by SRB assay; format: functional; conditions: SK-MEL-5, 48 h, read-out: Activity

Row | SMILES | growth at 10 µM
7 | C=CCn1c(C)nc2ccc(Nc3nc(Sc4ccc(N)cc4)nc4ccccc34)cc21 | 84.1%

system: SNB-75; experiment: Cytotoxicity against human SNB75 cells assessed as cell growth at 10^-5 M after 48 hrs by SRB assay; format: functional; conditions: SNB-75, 48 h, read-out: Activity

Row | SMILES | growth at 10 µM
8 | C=CCn1c(C)nc2ccc(Nc3nc(Sc4ccc(N)cc4)nc4ccccc34)cc21 | 98.2%

system: DU-145; experiment: Cytotoxicity against human DU145 cells assessed as cell growth at 10^-5 M after 48 hrs by SRB assay; format: functional; conditions: DU-145, 48 h, read-out: Activity

Row | SMILES | growth at 10 µM
9 | C=CCn1c(C)nc2ccc(Nc3nc(Sc4ccc(N)cc4)nc4ccccc34)cc21 | 114%

system: NCI-H322M; experiment: Cytotoxicity against human NCI-H322M cells assessed as cell growth at 10^-5 M after 48 hrs by SRB assay; format: functional; conditions: read-out: Activity

Row | SMILES | growth at 10 µM
10 | C=CCn1c(C)nc2ccc(Nc3nc(Sc4ccc(N)cc4)nc4ccccc34)cc21 | 102%

system: A498; experiment: Cytotoxicity against human A498 cells assessed as cell growth at 10^-5 M after 48 hrs by SRB assay; format: functional; conditions: A498, 48 h, read-out: Activity

Row | SMILES | growth at 10 µM
11 | C=CCn1c(C)nc2ccc(Nc3nc(Sc4ccc(N)cc4)nc4ccccc34)cc21 | 48.5%

system: ACHN; experiment: Cytotoxicity against human ACHN cells assessed as cell growth at 10^-5 M after 48 hrs by SRB assay; format: functional; conditions: read-out: Activity

Row | SMILES | growth at 10 µM
12 | C=CCn1c(C)nc2ccc(Nc3nc(Sc4ccc(N)cc4)nc4ccccc34)cc21 | 101%

system: SK-OV-3; experiment: Cytotoxicity against human SKOV3 cells assessed as cell growth at 10^-5 M after 48 hrs by SRB assay; format: functional; conditions: SK-OV-3, 48 h, read-out: Activity

Row | SMILES | growth at 10 µM
13 | C=CCn1c(C)nc2ccc(Nc3nc(Sc4ccc(N)cc4)nc4ccccc34)cc21 | 124%

system: SW-620; experiment: Cytotoxicity against human SW620 cells assessed as cell growth at 10^-5 M after 48 hrs by SRB assay; format: functional; conditions: SW-620, 48 h, read-out: Activity

Row | SMILES | growth at 10 µM
14 | C=CCn1c(C)nc2ccc(Nc3nc(Sc4ccc(N)cc4)nc4ccccc34)cc21 | 108%

system: SR; experiment: Cytotoxicity against human SR cells assessed as cell growth at 10^-5 M after 48 hrs by SRB assay; format: functional; conditions: read-out: Activity

Row | SMILES | growth at 10 µM
15 | C=CCn1c(C)nc2ccc(Nc3nc(Sc4ccc(N)cc4)nc4ccccc34)cc21 | 90.8%

system: TK-10; experiment: Cytotoxicity against human TK10 cells assessed as cell growth at 10^-5 M after 48 hrs by SRB assay; format: functional; conditions: TK-10, 48 h, read-out: Activity

Row | SMILES | growth at 10 µM
16 | C=CCn1c(C)nc2ccc(Nc3nc(Sc4ccc(N)cc4)nc4ccccc34)cc21 | 107%

system: RPMI-8226; experiment: Cytotoxicity against human RPMI8226 cells assessed as cell growth at 10^-5 M after 48 hrs by SRB assay; format: functional; conditions: RPMI-8226, 48 h, read-out: Activity

Row | SMILES | growth at 10 µM
17 | C=CCn1c(C)nc2ccc(Nc3nc(Sc4ccc(N)cc4)nc4ccccc34)cc21 | 59.8%

system: HT-29; experiment: Cytotoxicity against human HT-29 cells assessed as cell growth at 10^-5 M after 48 hrs by SRB assay; format: functional; conditions: HT-29, 48 h, read-out: Activity

Row | SMILES | growth at 10 µM
18 | C=CCn1c(C)nc2ccc(Nc3nc(Sc4ccc(N)cc4)nc4ccccc34)cc21 | 97.3%

system: SK-MEL-2; experiment: Cytotoxicity against human SK-MEL-2 cells assessed as cell growth at 10^-5 M after 48 hrs by SRB assay; format: functional; conditions: SK-MEL-2, 48 h, read-out: Activity

Row | SMILES | growth at 10 µM
19 | C=CCn1c(C)nc2ccc(Nc3nc(Sc4ccc(N)cc4)nc4ccccc34)cc21 | 109%

system: HOP-92; experiment: Cytotoxicity against human HOP92 cells assessed as cell growth at 10^-5 M after 48 hrs by SRB assay; format: functional; conditions: HOP-92, 48 h, read-out: Activity

Row | SMILES | growth at 10 µM
20 | C=CCn1c(C)nc2ccc(Nc3nc(Sc4ccc(N)cc4)nc4ccccc34)cc21 | 61.1%

system: 786-0; experiment: Cytotoxicity against human 786-0 cells assessed as cell growth at 10^-5 M after 48 hrs by SRB assay; format: functional; conditions: 786-0, 48 h, read-out: Activity

Row | SMILES | growth at 10 µM
21 | C=CCn1c(C)nc2ccc(Nc3nc(Sc4ccc(N)cc4)nc4ccccc34)cc21 | 102%

system: NCI-H23; experiment: Cytotoxicity against human NCI-H23 cells assessed as cell growth at 10^-5 M after 48 hrs by SRB assay; format: functional; conditions: NCI-H23, 48 h, read-out: Activity

Row | SMILES | growth at 10 µM
22 | C=CCn1c(C)nc2ccc(Nc3nc(Sc4ccc(N)cc4)nc4ccccc34)cc21 | 101%

system: K562; experiment: Cytotoxicity against human K562 cells assessed as cell growth at 10^-5 M after 48 hrs by SRB assay; format: functional; conditions: K562, 48 h, read-out: Activity

Row | SMILES | growth at 10 µM
23 | C=CCn1c(C)nc2ccc(Nc3nc(Sc4ccc(N)cc4)nc4ccccc34)cc21 | 92.5%

system: OVCAR-8; experiment: Cytotoxicity against human OVCAR8 cells assessed as cell growth at 10^-5 M after 48 hrs by SRB assay; format: functional; conditions: OVCAR-8, 48 h, read-out: Activity

Row | SMILES | growth at 10 µM
24 | C=CCn1c(C)nc2ccc(Nc3nc(Sc4ccc(N)cc4)nc4ccccc34)cc21 | 63.7%

system: not listed separately; experiment: Cytotoxicity against human OVCAR4 cells assessed as cell growth at 10^-5 M after 48 hrs by SRB assay; format: functional; conditions: OVCAR-4, 48 h, read-out: Activity

Row | SMILES | growth at 10 µM
25 | C=CCn1c(C)nc2ccc(Nc3nc(Sc4ccc(N)cc4)nc4ccccc34)cc21 | 88.5%

system: CCRF-CEM; experiment: Cytotoxicity against human CCRF-CEM cells assessed as cell growth at 10^-5 M after 48 hrs by SRB assay; format: functional; conditions: read-out: Activity

Row | SMILES | growth at 10 µM
26 | C=CCn1c(C)nc2ccc(Nc3nc(Sc4ccc(N)cc4)nc4ccccc34)cc21 | 65.5%

system: T47D; experiment: Cytotoxicity against human T47D cells assessed as cell growth at 10^-5 M after 48 hrs by SRB assay; format: functional; conditions: read-out: Activity

Row | SMILES | growth at 10 µM
27 | C=CCn1c(C)nc2ccc(Nc3nc(Sc4ccc(N)cc4)nc4ccccc34)cc21 | 71.7%

system: SK-MEL-28; experiment: Cytotoxicity against human SK-MEL-28 cells assessed as cell growth at 10^-5 M after 48 hrs by SRB assay; format: functional; conditions: SK-MEL-28, 48 h, read-out: Activity

Row | SMILES | growth at 10 µM
28 | C=CCn1c(C)nc2ccc(Nc3nc(Sc4ccc(N)cc4)nc4ccccc34)cc21 | 104%

system: COLO 205; experiment: Cytotoxicity against human COLO205 cells assessed as cell growth at 10^-5 M after 48 hrs by SRB assay; format: functional; conditions: COLO 205, 48 h, read-out: Activity

Row | SMILES | growth at 10 µM
29 | C=CCn1c(C)nc2ccc(Nc3nc(Sc4ccc(N)cc4)nc4ccccc34)cc21 | 121%

system: PC-3; experiment: Cytotoxicity against human PC3 cells assessed as cell growth at 10^-5 M after 48 hrs by SRB assay; format: functional; conditions: PC-3, 48 h, read-out: Activity

Row | SMILES | growth at 10 µM
30 | C=CCn1c(C)nc2ccc(Nc3nc(Sc4ccc(N)cc4)nc4ccccc34)cc21 | 81.1%

system: SF-268; experiment: Cytotoxicity against human SF268 cells assessed as cell growth at 10^-5 M after 48 hrs by SRB assay; format: functional; conditions: SF-268, 48 h, read-out: Activity

Row | SMILES | growth at 10 µM
31 | C=CCn1c(C)nc2ccc(Nc3nc(Sc4ccc(N)cc4)nc4ccccc34)cc21 | 109%

system: Malme-3M; experiment: Cytotoxicity against human MALME-3M cells assessed as cell growth at 10^-5 M after 48 hrs by SRB assay; format: functional; conditions: read-out: Activity

Row | SMILES | growth at 10 µM
32 | C=CCn1c(C)nc2ccc(Nc3nc(Sc4ccc(N)cc4)nc4ccccc34)cc21 | 123%

system: HCT-15; experiment: Cytotoxicity against human HCT15 cells assessed as cell growth at 10^-5 M after 48 hrs by SRB assay; format: functional; conditions: HCT-15, 48 h, read-out: Activity

Row | SMILES | growth at 10 µM
33 | C=CCn1c(C)nc2ccc(Nc3nc(Sc4ccc(N)cc4)nc4ccccc34)cc21 | 96.5%

system: CAKI-1; experiment: Cytotoxicity against human Caki1 cells assessed as cell growth at 10^-5 M after 48 hrs by SRB assay; format: functional; conditions: CAKI-1, 48 h, read-out: Activity

Row | SMILES | growth at 10 µM
34 | C=CCn1c(C)nc2ccc(Nc3nc(Sc4ccc(N)cc4)nc4ccccc34)cc21 | 90.5%

system: HL-60(TB); experiment: Cytotoxicity against human HL-60(TB) cells assessed as cell growth at 10^-5 M after 48 hrs by SRB assay; format: functional; conditions: HL-60, 48 h, read-out: Activity

Row | SMILES | growth at 10 µM
35 | C=CCn1c(C)nc2ccc(Nc3nc(Sc4ccc(N)cc4)nc4ccccc34)cc21 | 98.8%

system: SF-539; experiment: Cytotoxicity against human SF539 cells assessed as cell growth at 10^-5 M after 48 hrs by SRB assay; format: functional; conditions: SF-539, 48 h, read-out: Activity

Row | SMILES | growth at 10 µM
36 | C=CCn1c(C)nc2ccc(Nc3nc(Sc4ccc(N)cc4)nc4ccccc34)cc21 | 108%

system: A549; experiment: Cytotoxicity against human A549 cells assessed as cell growth at 10^-5 M after 48 hrs by SRB assay; format: functional; conditions: A549, 48 h, read-out: Activity

Row | SMILES | growth at 10 µM
37 | C=CCn1c(C)nc2ccc(Nc3nc(Sc4ccc(N)cc4)nc4ccccc34)cc21 | 89.8%

system: HOP-62; experiment: Cytotoxicity against human HOP62 cells assessed as cell growth at 10^-5 M after 48 hrs by SRB assay; format: functional; conditions: HOP-62, 48 h, read-out: Activity

Row | SMILES | growth at 10 µM
38 | C=CCn1c(C)nc2ccc(Nc3nc(Sc4ccc(N)cc4)nc4ccccc34)cc21 | 104%
